Test results published in PubChem BioAssay AID330 (DTP/NCI, 2004).
Several values for one entry are separate records, joined by “and”; a condition that tells them apart may be missing. Equal values may be shown once. Inconclusive results and toxic doses are left out. The calls were made as follows: active = survival T/C of 150% or more; inactive = T/C below 125% in these data.

Test system: P388 leukemia ip, CD2F1 mice, survival T/C
Test: NCI In Vivo Anticancer Drug Screen. Data for tumor model P388 Leukemia (intraperitoneal) in CD2F1 (CDF1) mice
Conditions: endpoint: median survival time, higher = longer survival
Summary of the method: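 Mice carrying the transplanted tumor received test compound or vehicle. Survival was recorded in each group, and the value is the treated-group measurement divided by that of the vehicle-treated control group.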

[1] = dose: 60.0 mg/kg/injection, schedule: Q01DX005 (ip), vehicle: Klucel (hydroxypropylcellulose) (HPC)
[2] = dose: 120.0 mg/kg/injection, schedule: Q01DX005 (ip), vehicle: Klucel (hydroxypropylcellulose) (HPC)
[3] = dose: 240.0 mg/kg/injection, schedule: Q01DX005 (ip), vehicle: Klucel (hydroxypropylcellulose) (HPC)
[4] = dose: 60.0 mg/kg/injection, schedule: Q01DX005 (ip), vehicle: saline with Tween-80
[5] = dose: 100.0 mg/kg/injection, schedule: Q04DX003 (ip), vehicle: Klucel (hydroxypropylcellulose) (HPC)
[6] = dose: 200.0 mg/kg/injection, schedule: Q04DX003 (ip), vehicle: Klucel (hydroxypropylcellulose) (HPC)
[7] = dose: 120.0 mg/kg/injection, schedule: Q01DX005 (ip), vehicle: saline with Tween-80
[8] = dose: 240.0 mg/kg/injection, schedule: Q01DX005 (ip), vehicle: saline with Tween-80
[9] = dose: 50.0 mg/kg/injection, schedule: Q01DX005 (ip), vehicle: saline with Tween-80
[10] = dose: 100.0 mg/kg/injection, schedule: Q01DX005 (ip), vehicle: saline with Tween-80
[11] = dose: 200.0 mg/kg/injection, schedule: Q01DX005 (ip), vehicle: saline with Tween-80
[12] = dose: 50.0 mg/kg/injection, schedule: Q01DX005 (ip), vehicle: Klucel (hydroxypropylcellulose) (HPC)
[13] = dose: 50.0 mg/kg/injection, schedule: Q01DX009 (ip), vehicle: saline
[14] = dose: 100.0 mg/kg/injection, schedule: Q01DX009 (ip), vehicle: saline
[15] = dose: 200.0 mg/kg/injection, schedule: Q01DX009 (ip), vehicle: saline

Measured: T/C

COc1ccc(C(Nc2ccccn2)c2cc(C(C)(C)C)cc(C(C)(C)C)c2O)cc1 (stereo unspecified)
inactive: dose: 50.0 mg/kg/injection, schedule: Q01DX005 (ip), vehicle: distilled water + alcohol 105 % of control | dose: 100.0 mg/kg/injection, schedule: Q01DX005 (ip), vehicle: distilled water + alcohol 100 % of control | dose: 200.0 mg/kg/injection, schedule: Q01DX005 (ip), vehicle: distilled water + alcohol 109 % of control

COC(=O)C(N)C(F)c1ccccc1 (stereo unspecified)
inactive: [1] 107 % of control | [2] 100 % of control | [3] 98 % of control

COc1ccc(-c2csc(NC(=O)Nc3nc(-c4ccc(OC)cc4)cs3)n2)cc1
inactive: dose: 15.0 mg/kg/injection, schedule: Q01DX005 (ip), vehicle: saline with Tween-80 97 % of control | dose: 30.0 mg/kg/injection, schedule: Q01DX005 (ip), vehicle: saline with Tween-80 100 % of control | [4] 87 % of control and 91 % of control

CCc1[nH]c2ccc(C)cc2c1C(=O)c1cccnc1
inactive: dose: 50.0 mg/kg/injection, schedule: Q04DX003 (ip), vehicle: Klucel (hydroxypropylcellulose) (HPC) 94 % of control | [5] 103 % of control | [6] 98 % of control

NC(N)=N/C(N)=N\c1nn[nH]n1
inactive: dose: 100.0 mg/kg/injection, schedule: Q01DX001 (ip), vehicle: saline 95 % of control | dose: 200.0 mg/kg/injection, schedule: Q01DX001 (ip), vehicle: saline 100 % of control | dose: 400.0 mg/kg/injection, schedule: Q01DX001 (ip), vehicle: saline 100 % of control

Cc1nc2c(o1)CCCC2
inactive: [4] 95 % of control | [7] 90 % of control | [8] 99 % of control

Clc1ccc(C2=NNC(c3ccc(Cl)cc3)=NN2)cc1
inactive: [1] 103 % of control | [2] 102 % of control | [3] 98 % of control

CC(C)[N+](=C1O[B-](c2ccccc2)(c2ccccc2)O[B-]1(c1ccccc1)[C+]1CCCCC1)C(C)C (stereo unspecified)
inactive: [9] 102 % of control | [10] 108 % of control | [11] 116 % of control

Cc1nn(C)pc1P(C)(=S)n1nc(N(C)C)np1 (stereo unspecified)
inactive: [12] 98 % of control | dose: 100.0 mg/kg/injection, schedule: Q01DX005 (ip), vehicle: Klucel (hydroxypropylcellulose) (HPC) 103 % of control

CC(=O)NNC(=S)Nc1ccccc1
inactive: [9] 100 % of control | [10] 101 % of control | [11] 100 % of control

O=P1(N(CCCl)CCCl)Nc2cc3ccccc3cc2N1
inactive: dose: 3.13 mg/kg/injection, schedule: Q01DX009 (ip), vehicle: saline with Tween-80 103 % of control | dose: 6.25 mg/kg/injection, schedule: Q01DX009 (ip), vehicle: saline with Tween-80 96 % of control | dose: 12.5 mg/kg/injection, schedule: Q01DX009 (ip), vehicle: saline with Tween-80 99 % of control | dose: 25.0 mg/kg/injection, schedule: Q01DX009 (ip), vehicle: saline with Tween-80 100 % of control

NS(=O)(=O)c1ccc(Nc2c3ccccc3nc3cc(Cl)ccc23)cc1
inactive: dose: 6.25 mg/kg/injection, schedule: Q01DX009 (ip), vehicle: Klucel (hydroxypropylcellulose) (HPC) 98 % of control | dose: 12.5 mg/kg/injection, schedule: Q01DX009 (ip), vehicle: Klucel (hydroxypropylcellulose) (HPC) 98 % of control | dose: 25.0 mg/kg/injection, schedule: Q01DX009 (ip), vehicle: Klucel (hydroxypropylcellulose) (HPC) 90 % of control | dose: 100.0 mg/kg/injection, schedule: Q01DX009 (ip), vehicle: Klucel (hydroxypropylcellulose) (HPC) 86 % of control

CC(=O)OCC(=O)[C@@]1(O)CC[C@H]2[C@@H]3CCC4=CC(=O)[C@H](C)C[C@]4(C)[C@@]3(F)[C@@H](O)C[C@@]21C
inactive: [5] 100 % of control | [6] 110 % of control

CC(C)(C)NC1=NCCNC(c2ccccc2)=C1
inactive: dose: 6.25 mg/kg/injection, schedule: Q01DX005 (ip), vehicle: saline 98 % of control | dose: 12.5 mg/kg/injection, schedule: Q01DX005 (ip), vehicle: saline 100 % of control | dose: 25.0 mg/kg/injection, schedule: Q01DX005 (ip), vehicle: saline 92 % of control

CCOC(=O)c1cn(C)c(=O)c(Br)c1C#N
inactive: [9] 92 % of control | [10] 96 % of control | [11] 93 % of control

O=C1c2ccccc2-c2cccc3ccnc1c23
inactive: dose: 8.0 mg/kg/injection, schedule: Q01DX009 (ip), vehicle: Klucel (hydroxypropylcellulose) (HPC) 103 % of control | dose: 16.0 mg/kg/injection, schedule: Q01DX009 (ip), vehicle: Klucel (hydroxypropylcellulose) (HPC) 101 % of control | dose: 32.0 mg/kg/injection, schedule: Q01DX009 (ip), vehicle: Klucel (hydroxypropylcellulose) (HPC) 103 % of control | dose: 64.0 mg/kg/injection, schedule: Q01DX009 (ip), vehicle: Klucel (hydroxypropylcellulose) (HPC) 100 % of control

CS1(=O)=NC(=N)c2ccccc21 (stereo unspecified)
inactive: [13] 102 % of control | [14] 107 % of control

CN(C)CCOc1ccccn1
inactive: [13] 98 % of control | [14] 101 % of control

NC(=S)NN=C1/C(=N\O)CCC/C1=N/O
inactive: [4] 97 % of control | [7] 97 % of control | [8] 97 % of control

CC(C)c1ccccc1N1C(=O)CC(Sc2ccccc2N)C1=O (stereo unspecified)
inactive: dose: 12.5 mg/kg/injection, schedule: Q01DX005 (ip), vehicle: Klucel (hydroxypropylcellulose) (HPC) 107 % of control | dose: 25.0 mg/kg/injection, schedule: Q01DX005 (ip), vehicle: Klucel (hydroxypropylcellulose) (HPC) 102 % of control | [12] 105 % of control and 90 % of control | dose: 200.0 mg/kg/injection, schedule: Q01DX005 (ip), vehicle: Klucel (hydroxypropylcellulose) (HPC) 90 % of control

CC1(C)CC(=O)N(CN2CCOCC2)C(=O)C1
inactive: dose: 60.0 mg/kg/injection, schedule: Q01DX005 (ip), vehicle: saline 100 % of control | dose: 120.0 mg/kg/injection, schedule: Q01DX005 (ip), vehicle: saline 100 % of control | dose: 240.0 mg/kg/injection, schedule: Q01DX005 (ip), vehicle: saline 110 % of control

O=C1CCSC(=S)N1c1ccc(C(F)(F)F)cc1
inactive: dose: 50.0 mg/kg/injection, schedule: Q01DX009 (ip), vehicle: suspension in saline 90 % of control | dose: 100.0 mg/kg/injection, schedule: Q01DX009 (ip), vehicle: suspension in saline 97 % of control | dose: 200.0 mg/kg/injection, schedule: Q01DX009 (ip), vehicle: suspension in saline 94 % of control

CCN(C(=S)NNC(=S)N/N=C(\C)c1ccccn1)c1ccccc1
inactive: dose: 6.25 mg/kg/injection, schedule: Q01DX005 (ip), vehicle: saline with Tween-80 94 % of control | dose: 12.5 mg/kg/injection, schedule: Q01DX005 (ip), vehicle: saline with Tween-80 107 % of control | dose: 25.0 mg/kg/injection, schedule: Q01DX005 (ip), vehicle: saline with Tween-80 109 % of control | [9] 112 % of control | [10] 120 % of control

COc1cc(/C=C/c2ccnnc2)cc(OC)c1OC
inactive: [13] 97 % of control | [14] 94 % of control | [15] 87 % of control

CNS(=O)(=O)Cc1ccccc1
inactive: [13] 107 % of control | [14] 107 % of control | [15] 100 % of control | dose: 400.0 mg/kg/injection, schedule: Q01DX009 (ip), vehicle: saline 108 % of control

COc1ccc(C2COc3cc4c(cc3C2)OCO4)cc1 (stereo unspecified)
inactive: [4] 98 % of control | [7] 98 % of control | [8] 96 % of control
